Measured values: patent US20240316059A1, “PEPTIDE DRUG CONJUGATES” (Oncopeptides AB, priority 2021, published 2024)
pIC50: −log10 of the molar value. Like-named read-outs stand apart in the source and are kept apart here.

How the values were obtained:
[1] = tested on: MM.1S cells; test: In vitro cytotoxic potency in MM.1S cell viability assay (CellTiter-Glo); assay type: cell-based, human; details: Homo sapiens, MM1.S, 72 h
Method: Methods: MM.1S Cells were cultivated in RPMI medium 1640 (IX) supplemented with 10 μg/μL penicillin/streptomycin, 10% heat inactivated FBS, 0.1 mM Sodium Pyruvate, 1×MEM NEAA (ThermoFisher) and 1 mM HEPES. Cells were grown to reach log phase before being exposed to the test compounds.
(§1) Test compounds (Example compounds 1 to 36, 38 to 41 and 45 to 48) and comparative compounds (bendamustine, busulfan, melphalan, chlorambucil and 4-hydroperoxy cyclophosphamide) were dissolved in 100% DMSO and added to a 384 assay plate. Additional DMSO was added to maintain the same final DMSO concentration (0.2%) in all wells. 25 μL cell suspension with a concentration of 100000 cells/mL was added to each well. The cells were cultured in a CO2 incubator at 37° C. for 72 h. Plates were equilibrated to room temperature for 30 minutes before adding 20 μL CellTiter-Glo® 2.0 (Promega) reagent to all wells. The plate was then allowed to stabilize for 20 minutes before recording the luminescence (emission filter 700 nm) in an Envision plate reader.
(§2) All cells were cultivated in RPMI medium 1640 (IX). All media was supplemented with 10 μg/μl penicillin/streptomycin, 10% heat inactivated FBS, 0.1 mM Sodium Pyruvate, 1×MEM NEAA (ThermoFisher) and 1 mM HEPES. The DERL-2 cells had higher FBS (20%) and 40 ng/mL IL-2 was added. hPBMCs were thawed and allowed to acclimatise overnight and then stimulated with 10 μg/mL PHA-M and 40 ng/mL IL-2 for 4 hours before being exposed to test compounds. All cells, except for hPBMCs, were grown to reach log phase before being exposed to the test compounds.
as §1, with “compounds” for “compounds (Example compounds 1 to 36, 38 to 41 and 45 to 48) and comparative compounds (bendamustine, busulfan, melphalan, chlorambucil and 4-hydroperoxy cyclophosphamide)”, “(Em” for “(emission”

[2] = tested on: MM.1S cells; test: Cellular retention/efflux: intracellular and extracellular concentrations by LC-MS/MS; assay type: in vitro ADME, human; details: metabolites measured after treatment with the parent Example compound
Method: Methods: MMA1S cells at 2×10^6 cells/mL were seeded at 250 μL per well in a 96-well plate. Cells were incubated in the presence of a test compound for 5, 15, and 60 min before pelleting cells by centrifugation at +4° C. for 5 min. Cell media was immediately harvested to a second plate and stored at −80° C. until further analysis. Pelleted cells were washed once with ice cold PBS before storage at −80° C. until further analysis.
Cells were lysed and protein in the media were precipitated using acetonitrile dimethylformamide, 9:1 containing internal standard. Samples were centrifuged and the supernatant was analyzed with LC-MS/MS (ACQUITY UPLC-Xevo TQ-S micro) to determine compound concentration.
Example compound 1, bendamustine and melphalan were used as test compounds.
Method: Method described in Biological example 3.
Example compounds 1, 2, 3, 4, 6, 7 and 10 were investigated. Intracellular metabolites are formed from all compounds tested. The compound used for cell treatment was metabolised to the ester-hydrolysed compound (here called Metabolite A) and to the amide-hydrolysed compound (called Metabolite B). The example compound structures and the structures of the two metabolites for the respective compounds were as shown in Table 4. The Metabolites B formed under the conditions tested were compounds with structure as Examples 17 and 18: […]

[3] = tested on: DNA prepared from MM.1S cells (nuclear HPRT and mitochondrial DNA); test: Direct DNA damage, PCR amplification of treated DNA (HPRT and mtDNA primers); assay type: biochemical, human; details: 0.25 μM compound, 30 minutes, 37° C., 1 μg DNA
Method: Method: DNA was prepared from MM.1S cells by QIAGEN genomic tip 20/G according to protocol described in Furda et al., Methods Mol Biol, 2012. 1 μg of DNA was treated with 0.25 μM compound for 30 minutes at 37° C. DMSO was used as control treatment. 20 ng of the treated DNA was PCR amplified using Phusion Hot Start II High Fidelity PCR Master Mix (Thermo Scientific) and primers directed to either HPRT or primers directed to mitochondrial DNA (mtDNA) was used, generating 10.4 or 8.9 kb fragments, respectively. The PCR reactions were separated on a 1% agarose gel and visualized by ChemiDoc™ MP Imaging System (BioRad). Example compounds 1, 2 and 38 were investigated, as were compounds 18 and 20, which are metabolites of compound 1. They were compared with bendamustine, melphalan and DMSO control. The results for compounds 1, 2, 18 and 20 with the HPRT primers are shown in FIG. 4(A); the results with the mtDNA primers are shown in FIG. 4(B).

[4] = tested on: U937; test: In vitro cytotoxicity, U937 (Histiocytic Lymphoma); assay type: cell-based; details: Homo sapiens, U-937; 72 h, CellTiter-Glo 2.0; read-out: Cytotoxicity IC50, U937
Method: as §2
as §1, with “compounds” for “compounds (Example compounds 1 to 36, 38 to 41 and 45 to 48) and comparative compounds (bendamustine, busulfan, melphalan, chlorambucil and 4-hydroperoxy cyclophosphamide)”, “(Em” for “(emission”

[5] = tested on: RPMI-8226; test: In vitro cytotoxicity, RPMI-8226 (Multiple Myeloma, resistant); assay type: cell-based; details: Homo sapiens, RPMI-8226; 72 h, CellTiter-Glo 2.0; read-out: Cytotoxicity IC50, RPMI-8226
Method: as §2
as §1, with “compounds” for “compounds (Example compounds 1 to 36, 38 to 41 and 45 to 48) and comparative compounds (bendamustine, busulfan, melphalan, chlorambucil and 4-hydroperoxy cyclophosphamide)”, “(Em” for “(emission”

[6] = tested on: SK-MM-1; test: In vitro cytotoxicity, SK-MM-1 (Plasma Cell Leukemia); assay type: cell-based; details: Homo sapiens; 72 h, CellTiter-Glo 2.0; read-out: Cytotoxicity IC50, SK-MM-1
Method: as §2
as §1, with “compounds” for “compounds (Example compounds 1 to 36, 38 to 41 and 45 to 48) and comparative compounds (bendamustine, busulfan, melphalan, chlorambucil and 4-hydroperoxy cyclophosphamide)”, “(Em” for “(emission”

[7] = tested on: DOHH-2; test: In vitro cytotoxicity, DOHH-2 (B Cell Lymphoma); assay type: cell-based; details: Homo sapiens, DOHH-2; 72 h, CellTiter-Glo 2.0; read-out: Cytotoxicity IC50, DOHH-2
Method: as §2
as §1, with “compounds” for “compounds (Example compounds 1 to 36, 38 to 41 and 45 to 48) and comparative compounds (bendamustine, busulfan, melphalan, chlorambucil and 4-hydroperoxy cyclophosphamide)”, “(Em” for “(emission”

[8] = tested on: HG-3; test: In vitro cytotoxicity, HG-3 (Chronic Lymphocytic Leukemia); assay type: cell-based; details: Homo sapiens, HG-3; 72 h, CellTiter-Glo 2.0; read-out: Cytotoxicity IC50, HG-3
Method: as §2
as §1, with “compounds” for “compounds (Example compounds 1 to 36, 38 to 41 and 45 to 48) and comparative compounds (bendamustine, busulfan, melphalan, chlorambucil and 4-hydroperoxy cyclophosphamide)”, “(Em” for “(emission”

[9] = tested on: SC-1; test: In vitro cytotoxicity, SC-1 (B cell Lymphoma); assay type: cell-based; details: Homo sapiens, SC-1; 72 h, CellTiter-Glo 2.0; read-out: Cytotoxicity IC50, SC-1
Method: as §2
as §1, with “compounds” for “compounds (Example compounds 1 to 36, 38 to 41 and 45 to 48) and comparative compounds (bendamustine, busulfan, melphalan, chlorambucil and 4-hydroperoxy cyclophosphamide)”, “(Em” for “(emission”

[10] = tested on: SU-DHL-8; test: In vitro cytotoxicity, SU-DHL-8 (B-cell non-Hodgkin Lymphoma); assay type: cell-based; details: Homo sapiens, SU-DHL-8; 72 h, CellTiter-Glo 2.0; read-out: Cytotoxicity IC50, SU-DHL-8
Method: as §2
as §1, with “compounds” for “compounds (Example compounds 1 to 36, 38 to 41 and 45 to 48) and comparative compounds (bendamustine, busulfan, melphalan, chlorambucil and 4-hydroperoxy cyclophosphamide)”, “(Em” for “(emission”

[11] = tested on: Toledo; test: In vitro cytotoxicity, Toledo (Diffuse Large B Cell Lymphoma); assay type: cell-based; details: Homo sapiens, 72 h, CellTiter-Glo 2.0, read-out: Cytotoxicity IC50, Toledo
Method: as §2
as §1, with “compounds” for “compounds (Example compounds 1 to 36, 38 to 41 and 45 to 48) and comparative compounds (bendamustine, busulfan, melphalan, chlorambucil and 4-hydroperoxy cyclophosphamide)”, “(Em” for “(emission”

SMILES	pIC50 ([1]; read-out: MM.1S IC50)	other results
Cn1c(CC[C@H](N)C(=O)O)nc2cc(N(CCCl)CCCl)ccc21 [Example 18, (S)-2-amino-4-(5-(bis(2-chloroethyl)amino)-1-methyl-1H-benzo[d]imidazol-2-yl)butanoic acid]	4.69	Intracellular concentration (in words) ([2]; MM.1S cells incubated with test compound 5, 15, 60 min): rapidly formed inside the cells; Extracellular concentration (in words) ([2]; media of MM.1S cells incubated with test compound 5, 15, 60 min): low levels of it are found in the media outside the cells; DNA damage on nuclear and mitochondrial DNA (PCR band) [3]: effectively damaged both nuclear and mitochondrial DNA
CC(C)C[C@H](NC(=O)[C@@H](N)CCc1nc2cc(N(CCCl)CCCl)ccc2n1C)C(=O)O [Example 20, (2S)-2-[[(2S)-2-amino-4-[5-[bis(2-chloroethyl)amino]-1-methyl-benzimidazol-2-yl]butanoyl]amino]-4-methyl-pentanoic acid]	5.24	DNA damage on nuclear and mitochondrial DNA (PCR band) [3]: DNA damaging effect but to a lesser degree compared to Example compounds 1, 2 and 18
CNC(=O)[C@H](CC(C)C)NC(=O)[C@@H](N)CCc1nc2cc(N(CCCl)CCCl)ccc2n1C [Example 31, (2S)-2-[[(2S)-2-amino-4-[5-[bis(2-chloroethyl)amino]-1-methyl-benzimidazol-2-yl]butanoyl]amino]-N,4-dimethyl-pentanamide]	6.74	
CCOC(=O)[C@H](CC(C)C)NC(=O)[C@H](CCc1nc2cc(N(CCCl)CCCl)ccc2n1C)NC [Example 32, Ethyl (2S)-2-[[(2S)-4-[5-[bis(2-chloroethyl)amino]-1-methyl-benzimidazol-2-yl]-2-(methylamino)butanoyl]amino]-4-methyl-pentanoate]	7.84	
CN[C@@H](CCc1nc2cc(N(CCCl)CCCl)ccc2n1C)C(=O)N[C@@H](CC(C)C)C(=O)O [Example 33, (2S)-2-[[(2S)-4-[5-[bis(2-chloroethyl)amino]-1-methyl-benzimidazol-2-yl]-2-(methylamino)butanoyl]amino]-4-methyl-pentanoic acid]	4.10	
CCOC(=O)[C@H](CC(C)C)NC(=O)[C@H](Cc1nc2cc(N(CCCl)CCCl)ccc2n1C)NC(C)=O [Example 35, Ethyl (2S)-2-[[(2S)-2-acetamido-3-[5-[bis(2-chloroethyl)amino]-1-methyl-benzimidazol-2-yl]propanoyl]amino]-4-methyl-pentanoate]	7.06	
CCOC(=O)[C@H](Cc1ccc(F)cc1)NC(=O)[C@H](Cc1nc2cc(N(CCCl)CCCl)ccc2n1C)NC(C)=O [Example 36, Ethyl (2S)-2-[[(2S)-2-acetamido-3-[5-[bis(2-chloroethyl)amino]-1-methyl-benzimidazol-2-yl]propanoyl]amino]-3-(4-fluorophenyl)propanoate]	7.24	
CCOC(=O)[C@@H](N)CCc1nc2cc(N(CCCl)CCCl)ccc2n1C.Cl.Cl [Example 38, Ethyl (2S)-2-amino-4-[5-[bis(2-chloroethyl)amino]-1-methyl-benzimidazol-2-yl]butanoate]	7.28	pIC50 ([1]; read-out: Cytotoxicity IC50, MM.1S): 7.28; pIC50 [4]: 7.60; pIC50 [5]: 6.17; pIC50 [6]: 6.76; pIC50 [7]: 7.55; pIC50 [8]: 7.30; pIC50 [9]: 7.11; pIC50 [10]: 7.15; pIC50 [11]: 7.79; DNA damage on nuclear and mitochondrial DNA (PCR band) [3]: effectively damaged both nuclear and mitochondrial DNA
Cn1c(CC[C@H](N)C(=O)N[C@@H](Cc2ccc(F)cc2)C(=O)O)nc2cc(N(CCCl)CCCl)ccc21 [Example 39, (2S)-2-[[(2S)-2-Amino-4-[5-[bis(2-chloroethyl)amino]-1-methyl-benzimidazol-2-yl]butanoyl]amino]-3-(4-fluorophenyl)propanoic acid]	< 5.70	
CC(C)C[C@H](NC(=O)[C@@H](N)CCc1nc2cc(N(CCCl)CCCl)ccc2n1-c1ccccc1)C(=O)O [Example 40, (2S)-2-[[(2S)-2-Amino-4-[5-[bis(2-chloroethyl)amino]-1-phenyl-benzimidazol-2-yl]butanoyl]amino]-4-methyl-pentanoic acid]	5.14	
N[C@@H](CCc1nc2cc(N(CCCl)CCCl)ccc2n1-c1ccccc1)C(=O)O [Example 41, (2S)-2-Amino-4-[5-[bis(2-chloroethyl)amino]-1-phenyl-benzimidazol-2-yl]butanoic acid]	4.78	
CCOC(=O)[C@@H](CC(C)C)NC(=O)[C@@H](N)CCc1nc2cc(N(CCCl)CCCl)ccc2n1C [Example 45, Ethyl (2R)-2-[[(2S)-2-amino-4-[5-[bis(2-chloroethyl)amino]-1-methyl-benzimidazol-2-yl]butanoyl]amino]-4-methyl-pentanoate]	6.29	
CCOC(=O)[C@H](CC(C)C)NC(=O)[C@H](N)CCc1nc2cc(N(CCCl)CCCl)ccc2n1C [Example 46, Ethyl (2S)-2-[[(2R)-2-amino-4-[5-[bis(2-chloroethyl)amino]-1-methyl-benzimidazol-2-yl]butanoyl]amino]-4-methyl-pentanoate]	7.23	
CCOC(=O)[C@@H](CC(C)C)NC(=O)[C@H](N)CCc1nc2cc(N(CCCl)CCCl)ccc2n1C [Example 47, Ethyl (2R)-2-[[(2R)-2-amino-4-[5-[bis(2-chloroethyl)amino]-1-methyl-benzimidazol-2-yl]butanoyl]amino]-4-methyl-pentanoate]	5.77	
CCOC(=O)[C@H](CC(C)C)NC(=O)[C@@H](N)CCc1nc2cc(N(CCCl)CCCl)cnc2n1C [Example 48, Ethyl (2S)-2-[[(2S)-2-amino-4-[6-[bis(2-chloroethyl)amino]-3-methyl-imidazo[4,5-b]pyridin-2-yl]butanoyl]amino]-4-methyl-pentanoate]	6.69	
